Values of other authors in patent US7517693B2, “Method and apparatus for determining a molecular descriptor of absorption for a candidate compound” (North Carolina State University, priority 2002, dated 2009).

Details: Table III calibration compounds, known literature descriptor; for logL^16 (solute gas-hexadecane partition coefficient): 25° C.

SMILES | α (effective solute H-bond acidity) | β (effective solute H-bond basicity) | π (effective solute dipolarity and polarizability) | logL^16 (solute gas-hexadecane partition coefficient)
ClC=CCl [1,2-Dichloroethene] | 0.11 | 0.05 | 0.61 | 
CCCCCCF [1-Fluorohexane] | 0.00 | 0.10 | 0.35 | 2.951
CCC(=O)c1ccccc1 [Ethylphenylketone] | 0.00 | 0.51 | 0.95 | 4.971
Oc1ccc(I)cc1 [Compound 4-Iodophenol, 4-Iodophenol] | 0.68 | 0.20 | 1.22 | 5.492
CCN [Ethylamine] | 0.16 | 0.61 | 0.35 | 1.677
Oc1ccccc1F [2-Fluorophenol] | 0.61 | 0.26 | 0.69 | 3.453
c1ccc2c(c1)ccc1ccccc12 [Phenanthrene] | 0.00 | 0.26 | 1.29 | 7.632
CN(C)C [Trimethylamine] | 0.00 | 0.67 | 0.20 | 1.620
COC(=O)c1ccccc1C(=O)OC [Dimethyl phthalate] | 0.00 | 0.88 | 1.41 | 
ClCCl [Dichloromethane] | 0.10 | 0.05 | 0.57 | 2.019
OC1CCCCC1 [Cyclohexanol] | 0.32 | 0.57 | 0.54 | 
Oc1ccc(F)cc1 [4-Fluorophenol] | 0.63 | 0.23 | 0.97 | 3.844
CCCCN [n-Butylamine] | 0.16 | 0.61 | 0.35 | 
c1ccccc1 [Benzene] |  |  | 0.52 | 
CCCCCCCCCCCCO [Compound 1-Dodecanol, 1-Dodecanol] | 0.37 | 0.48 | 0.42 | 6.640
CCCCCCCCCCCO [Compound 1-Undecanol, 1-Undecanol] | 0.37 | 0.48 | 0.42 | 6.130
Cc1c(C)c(C)c(C)c(C)c1C [Hexamethylbenzene] | 0.00 | 0.21 | 0.72 | 6.557
CCCCCCCCCl [1-Chlorooctane] | 0.00 | 0.10 | 0.40 | 4.772

SMILES | α (effective solute H-bond acidity) | β (effective solute H-bond basicity) | π (effective solute dipolarity and polarizability) | logL^16 (solute gas-hexadecane partition coefficient)
C1CCCCC1 [Cyclohexane] | 0.00 | 0.00 | 0.10 | 2.964
CCCCCCCl [1-Chlorohexane] | 0.00 | 0.10 | 0.40 | 3.777
ClC(Cl)(Cl)Cl [Tetrachloromethane] | 0.00 | 0.00 | 0.38 | 2.823
CO [Methanol] | 0.43 | 0.47 | 0.44 | 0.970
OCC(F)(F)F [2,2,2-Trifluoroethanol] | 0.57 | 0.25 | 0.60 | 1.224
CCCCNCCCC [Di-n-butylamine] | 0.08 | 0.69 | 0.30 | 4.349
COc1ccccc1O [2-Methoxyphenol] | 0.22 | 0.52 | 0.91 | 4.449
N#Cc1cccc(O)c1 [3-Cyanophenol] | 0.77 | 0.28 | 1.55 | 5.181
Cc1ccccc1O [o-Cresol] | 0.52 | 0.30 | 0.86 | 4.218
Sc1ccccc1 [Thiophenol] | 0.09 | 0.16 | 0.80 | 
Oc1ccc(Cl)cc1 [4-Chlorophenol] | 0.67 | 0.20 | 1.08 | 4.775
Cc1ccc([N+](=O)[O-])cc1 [4-Nitrotoluene] | 0.00 | 0.28 | 1.11 | 5.154
C1CCCCCCC1 [Cyclooctane] | 0.00 | 0.00 | 0.10 | 4.329
CCCCCO [Compound 1-Pentanol, 1-Pentanol] | 0.37 | 0.48 | 0.42 | 3.106
CCOCC [Diethylether] | 0.00 | 0.45 | 0.25 | 
c1ccc2c(c1)sc1ccccc12 [Dibenzothiophen] | 0.00 | 0.18 | 1.31 | 7.575
CCOP(=O)(OCC)OCC [Triethyl phosphate] | 0.00 | 1.06 | 1.00 | 4.750
